Source: US11154551B2, “HDAC1,2 inhibitors and methods of using the same” (UNIVERSITY OF UTAH RESEARCH FOUNDATION, priority 2014, dated 2021)
“Also recorded” adds a separate entry of the source.

Columns and labels:
[1] = test system: glioma cell lines U-87 and U-251; test: propidium iodide FACS cell cycle analysis; assay type: cell-based; settings: 2 μM, 72 hours
Procedure: Cells were treated with ACY957 or DMSO for 72 hours, stained with propidium iodide, and assessed by FACS. The percentage of cells in Sub-G1, G1, S, and G2-M phases were quantified for each sample.
Glioma is a type of primary brain tumor that originates in the glial cells present in the brain or spinal cord. The glioma cell lines U-87 and U-251 were treated with either DMSO or 2 μM ACY957 for 72 hours and then subjected to propidium iodide staining and FACS analysis to evaluate cell cycle progression.

[2] = test system: Karpas-422 cells; test: ChIP of H3K27ac and H3K27me3 at BMF and TP63 promoters; assay type: cell-based, human; settings: 2 μM, vs DMSO
From the text: RNA samples obtained from three independent treatments were subjected to RiboZero stranded sequencing using the Illumina Hiseq2000 sequencer. RNA-seq data from ACY-957-treated samples was compared to the publically available RNA seq data set from Karpas-422 cells following GSK126 treatment of Karpas-422 cells. Venn diagrams were made using the R package VennDiagram. Genes with adjusted p-value<0.05 and absolute log 2 fold change>0.585 were used in this analysis. (B): Pathway analysis of the 71 commonly up regulated genes was performed. Screen shots of the pathways that were misregulated in both ACY-957-treated Karpas-422 cells and in Karpas-422 cells following GSK-126 treatment. […] (C): Base read depth, scaled per million mapped reads, for BMF and Tp63 genes in DMSO- or ACY-957-treated Karpas-422 cells. […] Fold-increase as determined by real-time PCR analysis in H3K27ac relative to total H3 occupancy was calculated for both ACY-957-treated and DMSO-treated samples and the relative fold-enrichment of H3K27ac and […] in ACY-957-treated samples was calculated following normalization to DMSO-treated samples. The data represented an average fold-change calculated from three independent experiments+/−standard error. *p=0.003 and **p=0.004 (E): ChIP analysis of HDAC1 and HDAC2 at the promoters of BMF and Tp63 genes was performed in Karpas-422 cells. […]

[3] = test system: SUDHL4 cells; test: propidium-iodide / BrdU-PI cell cycle analysis; assay type: cell-based, human
Procedure: (B): Quantitation of the cell cycle data in (A), compiled from three independent analyses. The graphs plotted the average percentage of cells in each phase of the cell cycle. […] (C): FACS analysis following BrdU-PI staining of Karpas-422 and SUDHL4 cells was performed following a 48 h or 72 h treatment with ACY-957.
(B): Quantitation of the cell cycle analysis performed in (A). Data from three independent cell cycle analyses were compiled and average percentage cells with standard errors were shown in this panel.
Propidium-iodide Cell Cycle Analysis.
Since these DLBCL cells expressed a hyperactive form of EZH2, pharmacological inhibition of EZH2 activity was considered a therapeutic strategy. […] GSK126 was a S-adenosyl-methionine-competitive inhibitor of EZH2 methyltransferase activity, and DZNep was a S-adenosylhomocysteine hydrolase inhibitor that disrupted the components of the PRC2 complex, thereby causing reduced chromatin-associated EZH2 levels.

Structure (SMILES): Nc1ccc(-c2cccs2)cc1NC(=O)c1ccc2nc(N3CCNCC3)ccc2c1 [ACY-957, N-(2-amino-5-(thiophen-2-yl)phenyl)-2-(piperazin-1-yl)quinoline-6-carboxamide]
- effect on the cell cycle [1]: No effect on the cell cycle
- H3K27ac at promoter regions of TP63 and BMF [2]: increase in H3K27ac levels at the promoter regions of both TP63 and BMF genes
- H3K27me3 at TP63 and BMF promoters [2]: concomitant decrease in H3K27me3 was not observed
- progression through the cell cycle ([3]; 24 h, 2 μM ACY-957, 0.5 μM DZNEP, 0.5 μM GSK126): did not affect their progression through the cell cycle
- cell cycle / G1 arrest ([3]; 48 h, 2 μM ACY-957, 0.5 μM GSK126): accumulation of SUDHL4 cells in G1 phase (G1 arrest)
- S-phase population, BrdU-PI FACS ([3]; 48 h and 72 h, accompanied by G1 arrest): decrease in S-phase population
- cell cycle / G1 arrest and sub-G1 ([3]; 72 h, 2 μM ACY-957, 0.5 μM DZNEP, 0.5 μM GSK126): greater number of cells arrested in G1 phase; also recorded: cell cycle arrest at G1 phase in SUDHL4 cells
